The numbers were not newly measured in patent publication US8278478B2, “Process for the synthesis of hydrochloride salt of N-fatty acylsubstituted amino acid ethyl esters” (priority 2009, dated 2012), which cites them from elsewhere.

The conditions of the data set: at 20° C.

`CCCCCCCCCCCC(=O)N[C@@H](CCCNC(=N)N)C(=O)OCC.Cl` [Ethyl lauroyl arginate, ethyl-Nα-lauroyl-L-arginate HCl]: the solubility in water entry is reported as “greater than 247 g/kg”.
